PMC8624998, “Synthesis and Antiproliferative Evaluation of 3-Chloroazetidin-2-ones with Antimitotic Activity: Heterocyclic Bridged Analogues of Combretastatin A-4” (Pharmaceuticals, 2021)
Where two headings read alike, the source gives them in different places.

How the values were obtained:
Format in all cases: cell-based
U266 cells = assay: Cell viability assay, antiproliferative activity; details: Homo sapiens, U-266; U266, 72 h
Source text: Compounds 10n and 10e were next evaluated for antiproliferation in multiple myeloma (U266) cells. Multiple myeloma, also known as plasma cell myeloma, is a malignant haematological disease characterised by the proliferation of clonal plasma cells predominantly in the bone marrow. U266 cells are considered to be the least sensitive multiple myeloma cells to nucleoside drug cladribine compared to RPMI8226 and MM1.S cells.
The human breast carcinoma cell line MCF-7 was purchased from the European Collection of Animal Cell Cultures (ECACC). Triple negative breast cancer Hs578T cells and its invasive variant Hs578Ts(i)8 were a kind gift from Dr. Susan McDonnell, School of Chemical and Bioprocess Engineering, University College Dublin. U266 cells were a gift from Dr. Tony McElligott, School of Medicine, St James’s Hospital, Trinity College Dublin. HT-29 cells were purchased from the European Collection of Cell Cultures (originating from a human adenocarcinoma of the colon). The human breast carcinoma cell line MDA-MB-231 and the HL-60 cells derived from a patient with acute myeloid leukaemia were both obtained from ECACC (Salisbury, UK). The SW-480 cells were a kind gift from Dr. Brian Flood, School of Biochemistry and Immunology, Trinity College Dublin. HEK-293T (normal epithelial embryonic kidney cells) were cultured in Dulbecco’s Modified Eagle’s Medium (DMEM) with GlutaMAXTM-I in the absence of non-essential amino acids. […] Cell numbers were monitored using a haemocytometer. […]
A stock solution of each β-lactam compound was prepared (10 mM) and serial […] dilutions were made with ethanol for compounds to have working dilutions of 1 nM, 10 nM, 100 nM, 500 nM, 1µM, 5 µM, 10 µM and 50 µM. […] Solubilisation was commenced by the addition of DMSO ([…]) and the cells were maintained at 20 °C in the dark for 20 min before reading the absorbance to ensure complete colour diffusion. […]

A549/ATCC = assay: NCI-60 5 dose screen, NSC Lung Cancer; details: Homo sapiens
NCI-H226 = assay: NCI-60 5 dose screen, NSC Lung Cancer; details: Homo sapiens
COLO205 = assay: NCI-60 5 dose screen, Colon Cancer; details: Homo sapiens, COLO 205
LOX IMV1 = assay: NCI-60 5 dose screen, Melanoma; details: Homo sapiens
IGROV1 = assay: NCI-60 5 dose screen, Ovarian Cancer; details: Homo sapiens, IGROV-1
786-0 = assay: NCI-60 5 dose screen, Renal Cancer; details: Homo sapiens

Compound	IC50 (U266 cells) [nM]	GI50 (A549/ATCC; A549/ATCC, read-out: GI50) [nM]	GI50 (NCI-H226; read-out: GI50) [nM]	GI50 (COLO205; COLO205, read-out: GI50) [nM]	GI50 (LOX IMV1; read-out: GI50) [nM]	GI50 (IGROV1; IGROV1, read-out: GI50) [nM]	GI50 (786-0; read-out: GI50) [nM]	further results
COc1ccc([C@H]2[C@H](Cl)C(=O)N2c2cc(OC)c(OC)c(OC)c2)cc1 (relative stereo) [Compound 10e trans, Trans-3-chloro-1-(3,4,5-trimethoxyphenyl)-4-(4-methoxyphenyl) azetidin-2-one]	77 ± 20	78.5	55.7	49.2	67.6	58	69.4	
COc1ccc(/C=C\c2cc(OC)c(OC)c(OC)c2)cc1O [CA-4, Combretastatin A-4]	35 ± 10							
COc1ccc(C2C(Cl)C(=O)N2c2cc(OC)c(OC)c(OC)c2)cc1O (stereo not drawn) [Compound 10n, 3-Chloro-4-(3-hydroxy-4-methoxy-phenyl)-1-(3,4,5-trimethoxyphenyl)azetidin-2-one]	31 ± 10							
COc1ccc(C2N(c3cc(OC)c(OC)c(OC)c3)C(=O)C2(Cl)Cl)cc1O (stereo not drawn) [Compound 11n, 3,3-Dichloro-4-(3-hydroxy-4-methoxyphenyl)-1-(3,4,5-trimethoxyphenyl)azetidin-2-one]								GI50 (A549/ATCC; A549): 38.2 nM; GI50 (NCI-H226): 36.8 nM; GI50 (COLO205): 2910 nM; GI50 (LOX IMV1): 41.5 nM; GI50 (IGROV1): 44.5 nM; GI50 (786-0): 41.2 nM
CCSc1ccc(C2C(Br)C(=O)N2c2cc(OC)c(OC)c(OC)c2)cc1 (stereo not drawn) [Compound 16d, 3-Bromo-4-(4-(ethylthio)phenyl)-1-(3,4,5-trimethoxyphenyl)azetidin-2-one]		598	3110	230	834	63	340	
